This note sets out measurements from article PMC5557489, “Computational and experimental analysis of short peptide motifs for enzyme inhibition” (PLoS ONE, 2017).

The assay deals with T1, β-galactosidase (β-Gal) (Escherichia coli, UniProt P00722).
T1 construct: purchased Sigma (St. Louis, MO)
Kind of assay: biochemical. Type of assay: biochemical. On the procedure: Solution-based enzyme assays were performed on SpectraMax M5 96 well plate readers (Molecular Device, Sunnyvale, CA) as described previously.[13] Briefly, peptides were first incubated with enzyme for 20 minutes, then the substrate solution was added into the wells to measure the enzyme activity, including at least three replicates per peptide. The β-gal catalyzed hydrolysis of RBG was fluorescently monitored at 590 nm (resorufin) with the excitation at 540 nm. The velocity of the reaction was determined by the initial velocity of the linear reaction. The IC50 of each inhibitor was determined by fitting the concentration vs. inhibition curve to the function ‘Fit LogIC50’ as defined in the program GraphPad Prism 7 using the fitting equation “Y = Bottom+(Top-Bottom)/(1+10^(X-LogIC50))”.
The enzyme inhibition was also quantitatively characterized using the inhibition percentage that was calculated using the following equation: Inhibition Percentage = (Activityuninhibited− Activityinhibited)/ Activityuninhibited× 100% […]
Fluorescein di-β-D-galactopyranoside (FDG), resorufin β-D-galactopyranoside (RBG) and Alexa Fluor 647 (Alexa 647) were purchased from Invitrogen (Eugene, OR). Phenylethyl β-D-thiogalactoside (PETG), β-galactosidase (β-Gal), phosphate buffered saline (PBS) and tris buffered saline (TBS) were obtained from Sigma (St. Louis, MO). A 4 mg/mL stock solution of β-Gal was prepared in 10 mM potassium phosphate buffer with 0.1 mM MgCl2 at pH 7.4. A 2 mg/mL stock solution of peptide was first prepared in pure water, and then diluted in phosphate buffer to the desired concentration. Custom peptides were purchased from Sigma.

Read-outs that look alike come from different tables or passages of the source. Ends that are not written are not given here.

T1 sequence (P00722 2-1024): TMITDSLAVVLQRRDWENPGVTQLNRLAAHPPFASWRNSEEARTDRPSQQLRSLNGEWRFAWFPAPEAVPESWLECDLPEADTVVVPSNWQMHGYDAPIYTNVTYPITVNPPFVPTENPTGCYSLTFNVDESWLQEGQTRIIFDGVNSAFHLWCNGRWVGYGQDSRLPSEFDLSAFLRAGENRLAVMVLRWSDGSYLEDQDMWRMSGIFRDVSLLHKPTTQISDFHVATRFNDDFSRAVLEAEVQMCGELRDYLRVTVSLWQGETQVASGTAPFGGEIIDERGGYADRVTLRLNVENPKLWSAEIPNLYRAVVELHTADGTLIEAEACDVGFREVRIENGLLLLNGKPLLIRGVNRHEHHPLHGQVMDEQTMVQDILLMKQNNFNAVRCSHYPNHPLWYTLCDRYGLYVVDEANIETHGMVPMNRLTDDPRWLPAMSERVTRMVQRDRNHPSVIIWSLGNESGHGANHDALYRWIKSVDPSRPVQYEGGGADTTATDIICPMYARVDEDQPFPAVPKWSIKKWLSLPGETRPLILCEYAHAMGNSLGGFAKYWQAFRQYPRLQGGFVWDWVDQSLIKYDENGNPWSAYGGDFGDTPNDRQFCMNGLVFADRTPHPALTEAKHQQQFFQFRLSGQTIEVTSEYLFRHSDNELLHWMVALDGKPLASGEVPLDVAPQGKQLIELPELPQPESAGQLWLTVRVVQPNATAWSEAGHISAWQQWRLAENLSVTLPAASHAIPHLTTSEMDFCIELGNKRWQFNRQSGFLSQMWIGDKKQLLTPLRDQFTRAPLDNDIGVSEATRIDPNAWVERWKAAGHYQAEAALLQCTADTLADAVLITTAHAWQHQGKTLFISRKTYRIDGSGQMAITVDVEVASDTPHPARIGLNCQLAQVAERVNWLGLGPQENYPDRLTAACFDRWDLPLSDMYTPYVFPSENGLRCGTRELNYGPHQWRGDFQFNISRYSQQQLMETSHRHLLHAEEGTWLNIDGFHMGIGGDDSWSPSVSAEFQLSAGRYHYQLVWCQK

The IC50 is the concentration at which inhibition is half-maximal. As to PASMFSYFKKQGYYYKLGSC [PEP-2], the IC50 was approximately 13 µM.
As to `OC[C@H]1O[C@@H](SCCc2ccccc2)[C@H](O)[C@@H](O)[C@@H]1O` [PETG, phenylethyl β-D-thiogalactoside, reference compound], under “Fig 1, 100 μM RBG, β-Gal 150 μg/L, 25°C, three replicates, lead peptides previously selected from microarray [13], read-out: IC50 of peptide inhibition of β-Gal”, the IC50 is approximately 35 µM.
Consider FKRYRRWGSC [nPEP-1-45], for which the IC50 is approximately 2.5 µM.
On to “KKQGYYYKLGSC [shorter C-terminus motif of PEP-2 from truncation analysis]”, for which the “normalized inhibition of β-Gal, truncation scan of PEP-2” value (Fig 3B, normalized to the inhibition percentage value of PEP-2 at 50 μM, three replicates) was “inhibited β-Gal”.
RVFKRYKRWLHVSRYYFGSC [PEP-1] gave an IC50 of approximately 1.6 µM.
Same read-out and setting: the figure for FKRYKRWGSC [nPEP-1] is approximately 4 µM.
